The conditions of data set [1]: 298.15 K; 101.33 kPa; Liquid; Pycnometric method.
A short description of data set [2]: refractive index (Na D-line) (dimensionless). The settings on record: 298.15 K; 101.33 kPa; Liquid; Standard Abbe refractometry.

The term mass density denotes mass per unit of volume. The refractive index is a measure of how strongly the sample bends light.

Numbers after ± are expanded uncertainties.

Take `COCOCOC` [2,4,6-trioxaheptane]: in data set [1], the mass density is recorded as 957.8 ± 0.3 kg/m3. Further, in data set [2], the refractive index is on record as 1.3789 ± 0.0004.
The corresponding values for `CCCCO` [butan-1-ol] are 805.2 ± 0.3 kg/m3 and 1.3967 ± 0.0004.
Take `O` [water]: in data set [2], the refractive index came out at 1.3325 ± 0.0004.
